Assay results taken from US20230265151A1, “GIP/GLP1 CO-AGONIST COMPOUNDS” (priority 2020, published 2023).
Where two headings read alike, the source gives them in different places.

Assays:
Type in all cases: cell-based
hGCGR = target: T1, hGCGR (Homo sapiens, UniProt P47871); assay: Functional cAMP formation (HTRF) in HEK-293 clonal cells expressing hGCGR, 0.1% bovine casein, without or with 1.0% human serum albumin; settings: read-out: hGCGR EC50, nM (SEM, n)
T1 construct: expressed in transfected cells
T1 sequence (P47871 26-477): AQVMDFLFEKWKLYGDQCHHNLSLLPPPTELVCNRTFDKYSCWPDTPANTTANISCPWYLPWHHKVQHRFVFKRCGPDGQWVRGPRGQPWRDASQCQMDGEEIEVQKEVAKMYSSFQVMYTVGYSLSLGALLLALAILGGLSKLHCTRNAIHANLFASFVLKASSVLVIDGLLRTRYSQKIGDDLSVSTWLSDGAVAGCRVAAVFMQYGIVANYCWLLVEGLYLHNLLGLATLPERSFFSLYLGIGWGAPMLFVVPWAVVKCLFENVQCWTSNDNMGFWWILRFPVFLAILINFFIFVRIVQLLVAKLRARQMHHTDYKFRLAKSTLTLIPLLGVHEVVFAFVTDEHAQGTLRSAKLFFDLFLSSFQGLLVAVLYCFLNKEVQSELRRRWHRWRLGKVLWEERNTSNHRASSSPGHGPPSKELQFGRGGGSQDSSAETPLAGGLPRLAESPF
Summary of the method: (§1)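 Readings of the HTRF 665/620 nm ratio, which falls as cAMP rises, were converted to nM cAMP using a standard curve after 30 min peptide exposure at 37° C.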

hGLP-1R = hGLP-1R (Homo sapiens, UniProt P43220); assay: Functional cAMP formation (HTRF) in HEK-293 clonal cells expressing hGLP-1R, 0.1% bovine casein, without or with 1.0% human serum albumin; parameters: expressed in transfected cells; settings: for EC50: geometric mean, read-out: hGLP-1R EC50, nM (SEM, n); for Emax: percent of maximal response to GLP-1(7-36)NH2, read-out: hGLP-1R Emax, % ± SEM
Chain of hGLP-1R (P43220 24-463): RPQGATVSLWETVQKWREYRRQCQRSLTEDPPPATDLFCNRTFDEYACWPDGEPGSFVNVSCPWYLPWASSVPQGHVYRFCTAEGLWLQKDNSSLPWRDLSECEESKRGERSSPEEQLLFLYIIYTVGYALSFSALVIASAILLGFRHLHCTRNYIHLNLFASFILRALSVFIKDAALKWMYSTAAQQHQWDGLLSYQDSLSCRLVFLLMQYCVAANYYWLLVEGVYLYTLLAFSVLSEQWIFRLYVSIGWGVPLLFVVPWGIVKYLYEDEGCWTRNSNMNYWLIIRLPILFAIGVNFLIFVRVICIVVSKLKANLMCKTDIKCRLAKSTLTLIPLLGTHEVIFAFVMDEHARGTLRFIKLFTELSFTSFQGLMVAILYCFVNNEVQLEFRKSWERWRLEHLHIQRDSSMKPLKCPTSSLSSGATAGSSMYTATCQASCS
Summary of the method: as §1

hGIPR = target: T2, hGIPR (Homo sapiens, UniProt P48546); assay: Functional cAMP formation (HTRF) in HEK-293 clonal cells expressing hGIPR, 0.1% bovine casein, without or with 1.0% human serum albumin; settings: for EC50: geometric mean, read-out: hGIPR EC50, nM (SEM, n); for Emax: read-out: hGIPR Emax, % ± SEM
T2 construct: expressed in transfected cells
T2 sequence (P48546 22-466): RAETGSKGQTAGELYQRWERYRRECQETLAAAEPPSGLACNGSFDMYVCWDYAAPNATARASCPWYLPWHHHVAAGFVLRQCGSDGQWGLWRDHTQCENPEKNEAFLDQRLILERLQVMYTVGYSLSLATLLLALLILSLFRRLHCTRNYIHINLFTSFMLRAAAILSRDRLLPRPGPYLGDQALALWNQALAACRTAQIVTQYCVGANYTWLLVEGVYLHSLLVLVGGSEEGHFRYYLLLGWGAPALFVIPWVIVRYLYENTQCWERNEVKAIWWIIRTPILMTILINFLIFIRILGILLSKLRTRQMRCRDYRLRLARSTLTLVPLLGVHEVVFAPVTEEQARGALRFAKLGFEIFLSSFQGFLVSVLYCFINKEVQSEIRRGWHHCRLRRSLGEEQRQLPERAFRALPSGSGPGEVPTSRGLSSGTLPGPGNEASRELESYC
Summary of the method: as §1

[1] = 0.1% bovine casein and 1.0% human serum albumin, 37° C.
[2] = cAMP, incubated at 37° C., 0.1% bovine casein (no human serum albumin)
[3] = cAMP, 37° C., 0.1% bovine casein (no human serum albumin)

SMILES	EC50 (hGCGR; 0.1% bovine casein and 1.0% human serum albumin, 37° C., geometric mean)	EC50 (hGCGR; cAMP, incubated at 37° C., 0.1% bovine casein (no human serum albumin), geometric mean)	EC50 (hGLP-1R; [1])	Emax (hGLP-1R; HEK293, 0.1% bovine casein and 1.0% human serum albumin, 37° C.)	EC50 (hGLP-1R; [2])	EC50 (hGIPR; [1])	Emax (hGIPR; HEK293, 0.1% bovine casein and 1.0% human serum albumin, 37° C., percent of maximal response to GIP(1-42)NH2)	Emax (hGIPR; HEK293, percent of maximal response to GIP(1-42)NH2, 37° C., 0.1% bovine casein, arithmetic mean)	EC50 (hGIPR; [2])	EC50 (hGCGR; cAMP, 37° C., 0.1% bovine casein (no human serum albumin), geometric mean)	EC50 (hGCGR; cAMP, 37° C., 0.1% bovine casein and 1.0% human serum albumin, geometric mean (SEM, n))	Emax (hGLP-1R; HEK293, cAMP, 37° C., 0.1% bovine casein and 1.0% human serum albumin)	Emax (hGLP-1R; HEK293, cAMP, 37° C., 0.1% bovine casein, arithmetic mean)	EC50 (hGLP-1R; [3])	Emax (hGIPR; HEK293, cAMP, 37° C., 0.1% bovine casein and 1.0% human serum albumin, percent of maximal response to GIP(1-42)NH2)	EC50 (hGIPR; [3])
CC[C@H](C)[C@H](NC(=O)[C@H](CCCN)NC(=O)[C@H](CC(=O)O)NC(=O)[C@H](CC(C)C)NC(=O)[C@](C)(CC(C)C)NC(=O)[C@@H](NC(=O)[C@H](CO)NC(=O)[C@H](Cc1ccncc1)NC(=O)[C@H](CC(=O)O)NC(=O)[C@H](CO)NC(=O)[C@@H](NC(=O)[C@](C)(Cc1ccccc1F)NC(=O)[C@@H](NC(=O)CNC(=O)[C@H](CCC(=O)O)NC(=O)C(C)(C)NC(=O)[C@@H](N)Cc1ccc(O)cc1)[C@@H](C)O)[C@@H](C)O)[C@@H](C)CC)C(=O)N[C@@H](C)C(=O)N[C@@H](CCC(N)=O)C(=O)NC(C)(C)C(=O)N[C@@H](CCCCNC(=O)COCCOCCNC(=O)COCCOCCNC(=O)CC[C@H](NC(=O)CCCCCCCCCCCCC(=O)O)C(=O)O)C(=O)N[C@@H](Cc1ccccc1)C(=O)N[C@H](C(=O)N[C@H](CCC(=O)O)C(=O)N[C@@](C)(Cc1ccc(O)cc1)C(=O)N[C@@H](CC(C)C)C(=O)N[C@H](C(=O)N[C@@H](CCC(=O)O)C(=O)NCC(=O)NCC(=O)N1CCC[C@H]1C(=O)N[C@@H](CO)C(=O)N[C@@H](CO)C(=O)NCC(=O)N[C@@H](C)C(=O)N1CCC[C@H]1C(=O)N1CCC[C@H]1C(=O)N1CCC[C@H]1C(=O)N[C@@H](CO)C(=O)N[C@@H](CCCCNC(=O)COCCOCCNC(=O)COCCOCCNC(=O)CC[C@H](NC(=O)CCCCCCCCCCCCC(=O)O)C(=O)O)C(N)=O)[C@@H](C)CC)[C@@H](C)CC [Example 75]	> 9950 nM	> 9950 nM	41.3 nM	97 ± 8.3%	0.411 nM	2.18 nM	87.8 ± 3.33%	92.3 ± 0.78%	0.0182 nM	–	–	–	–	–	–	–
CC[C@H](C)[C@H](NC(=O)[C@H](CC(C)C)NC(=O)[C@](C)(Cc1ccc(O)cc1)NC(=O)[C@@H](CCC(=O)O)NC(=O)[C@@H](NC(=O)[C@H](Cc1ccccc1)NC(=O)[C@H](CCCN)NC(=O)C(C)(C)NC(=O)[C@H](CCC(N)=O)NC(=O)[C@H](C)NC(=O)[C@H](CCCCNC(=O)COCCOCCNC(=O)COCCOCCNC(=O)CC[C@H](NC(=O)CCCCCCCCCCCCC(=O)O)C(=O)O)NC(=O)[C@H](CCCN)NC(=O)[C@H](CC(=O)O)NC(=O)[C@H](CC(C)C)NC(=O)[C@](C)(CC(C)C)NC(=O)[C@@H](NC(=O)C(C)(C)NC(=O)[C@@H](NC(=O)[C@H](CC(=O)O)NC(=O)[C@H](CO)NC(=O)[C@@H](NC(=O)[C@](C)(Cc1ccccc1F)NC(=O)[C@@H](NC(=O)CNC(=O)[C@H](CCC(=O)O)NC(=O)C(C)(C)NC(=O)[C@@H](N)Cc1ccc(O)cc1)[C@@H](C)O)[C@@H](C)O)C(C)C)[C@@H](C)CC)[C@@H](C)CC)C(=O)N[C@@H](CCCCNC(=O)COCCOCCNC(=O)COCCOCCNC(=O)CC[C@H](NC(=O)CCCCCCCCCCCCC(=O)O)C(=O)O)C(=O)NCC(=O)NCC(=O)N1CCC[C@H]1C(=O)N[C@@H](CO)C(=O)N[C@@H](CO)C(=O)NCC(=O)N[C@@H](C)C(=O)N1CCC[C@H]1C(=O)N1CCC[C@H]1C(=O)N1CCC[C@H]1C(=O)N[C@@H](CO)C(N)=O [Example 350]	–	–	–	–	–	–	–	–	–	> 9950 nM	> 9950 nM	91.4%	95.9%	0.202 nM	73.5%	0.0288 nM
